# Measurements as given in patent US20250122193A1, “NOVEL PYRIDOCARBAZOLIUM COMPOUNDS AND MEDICAL USES THEREOF” (MyCural Therapeutics, priority 2021, published 2025).
# What was measured:
# [1] = intracerebroventricular injection, toxicity; conditions: highest concentration (10 μM)
# Text: First, we performed a pharmacokinetic study of the behavior of the molecule in mice.
# ODC1 expression = assay: MYC target gene ODC1 expression by qPCR; format: cell-based; conditions: 5 μM
# Protocol: FIG. 1: MYCMI-7 (Compound Example 1) inhibits the MYC:MAX interaction in cells, bind MYC in vitro, and blocks MYC function. A) Molecular structure of MYCMI-7. B-E) split Gaussia luciferase (GLuc) assay. MYC or MYCN and MAX Gluc constructs were co-transfected into HeLa cells together with a firefly luciferase vector. 24 hours post transfection cells were treated with compounds, and after another 17-24 hours cells were harvested and both GLuc and firefly luciferase activities were measured. The mean of three different experiments is shown. Treatment with: B) 5 μM of MYCMI-7, 64 μM 10058-F4 or 5 μM JQ1, respectively, C) 6.5 μM MYCMI-7 on cells expressing MYC:MAX GLuc vs. GCN4:GCN4 GLuc, D) 5 μM MYCMI-7 and 5 μM ellipticine. E) 5 μM MYCMI-7 for various time points. F) in situ proximity ligation assay (isPLA). […] MYC:GAL4 was used as negative control in the isPLA assay. G) Quantification of isPLA dots. (H) Co-immunoprecipitation (co-IP) of endogenous MYC and MAX proteins from MCF7 cells after treatment with 5 μM MYCMI-7 at various times. IP=immunoprecipitation; W=western blot. […] J) MYC target gene ODC1 expression after treatment with 5 μM MYCMI-7, quantified by qPCR. […] L) Recombinant MYC bHLHZip protein domain immobilized onto a CM5 chip was subjected to various concentrations of MYCMI-7 and the complex of MYCbHLHZip-MYCMI-7 was measured as response units by SPR. […]
# MYC:MAX interaction = MYC:MAX interaction (Homo sapiens, UniProt P01106); assay: co-immunoprecipitation of endogenous MYC and MAX; format: cell-based; conditions: 5 μM, MCF7 cells
# Chain of MYC:MAX interaction (P01106 16-454): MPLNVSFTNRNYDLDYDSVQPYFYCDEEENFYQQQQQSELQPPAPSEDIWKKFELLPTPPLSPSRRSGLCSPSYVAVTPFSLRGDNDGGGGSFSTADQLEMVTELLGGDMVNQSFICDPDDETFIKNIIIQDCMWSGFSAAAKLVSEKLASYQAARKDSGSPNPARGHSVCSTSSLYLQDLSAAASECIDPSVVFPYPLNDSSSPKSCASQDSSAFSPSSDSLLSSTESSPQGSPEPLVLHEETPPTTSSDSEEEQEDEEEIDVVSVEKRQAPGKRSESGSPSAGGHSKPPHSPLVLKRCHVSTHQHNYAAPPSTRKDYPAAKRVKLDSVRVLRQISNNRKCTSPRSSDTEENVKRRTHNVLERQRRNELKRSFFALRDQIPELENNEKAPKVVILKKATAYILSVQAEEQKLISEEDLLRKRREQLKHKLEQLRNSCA
# Protocol: FIG. 1: MYCMI-7 (Compound Example 1) inhibits the MYC:MAX interaction in cells, bind MYC in vitro, and blocks MYC function. A) Molecular structure of MYCMI-7. B-E) split Gaussia luciferase (GLuc) assay. MYC or MYCN and MAX Gluc constructs were co-transfected into HeLa cells together with a firefly luciferase vector. 24 hours post transfection cells were treated with compounds, and after another 17-24 hours cells were harvested and both GLuc and firefly luciferase activities were measured. The mean of three different experiments is shown. Treatment with: B) 5 μM of MYCMI-7, 64 μM 10058-F4 or 5 μM JQ1, respectively, C) 6.5 μM MYCMI-7 on cells expressing MYC:MAX GLuc vs. GCN4:GCN4 GLuc, D) 5 μM MYCMI-7 and 5 μM ellipticine. E) 5 μM MYCMI-7 for various time points. F) in situ proximity ligation assay (isPLA). […] G) Quantification of isPLA dots. […] J) MYC target gene ODC1 expression after treatment with 5 μM MYCMI-7, quantified by qPCR. […] L) Recombinant MYC bHLHZip protein domain immobilized onto a CM5 chip was subjected to various concentrations of MYCMI-7 and the complex of MYCbHLHZip-MYCMI-7 was measured as response units by SPR. […]
# For western blot equal amounts of proteins ([…]) were separated on a 4-12% SDS-PAGE gel. Proteins were transferred to Immobilion-P membrane (Millipore) and detected by immunostaining and chemoluminescence (Immobilion western HRP substrate; Millipore). […]
structure (smiles),measurement,setting,value
"CCN(CC)CC[n+]1ccc2c(C)c3[nH]c4ccccc4c3c(C)c2c1 [MYCMI-7, 2-(5,11-Dimethyl-6H-25-pyrido[4,3-b]carbazol-2-yl)-N,N-diethylethanamine bromide]",toxicity after intracerebroventricular injection,[1],no signs of toxicity
same,ODC1 expression,ODC1 expression,reduced ODC1 expression
same,MYC:MAX interaction by co-IP,MYC:MAX interaction; 1 hour after treatment,decreased
same,MYC:MAX interaction by co-IP,MYC:MAX interaction; 4 hours,reduced drastically
